Converted amounts (≈) assume the structure as drawn. “And” between values parts separate entries of the source, which are not always exact repeats. Equal values may be shown once. Values belong to the compound of their own block, whether it stands above or below them.
Experiments:
Test in all cases: ≥ marks a high value that may be exact or a test limit, other limits are often not marked, values filed in µg/mL are converted to µM
Streptococcus mutans = test system: Streptococcus mutans
[1] = test system: Staphylococcus aureus ATCC 25923
[2] = test system: Pseudomonas aeruginosa ATCC 27853
[3] = test system: Escherichia coli ATCC 25922
[4] = test system: Escherichia coli ATCC 11775
Micrococcus luteus = test system: Micrococcus luteus
[5] = test system: Staphylococcus aureus NCTC 8325
[6] = test system: Candida albicans ATCC 90028
[7] = test system: Pseudomonas aeruginosa ATCC 10145
[8] = test system: Salmonella enterica subsp. enterica serovar Typhimurium ATCC 14028
[9] = test system: Escherichia coli DH5alpha
[10] = test system: Klebsiella pneumoniae ATCC 13883
Bacillus subtilis 168 = test system: Bacillus subtilis 168
Staphylococcus aureus = test system: Staphylococcus aureus
Pseudomonas aeruginosa = test system: Pseudomonas aeruginosa
Escherichia coli B = test system: Escherichia coli B
[11] = test system: Acinetobacter baumannii ATCC 19606
Escherichia coli = test system: Escherichia coli
Klebsiella pneumoniae = test system: Klebsiella pneumoniae
Acinetobacter baumannii = test system: Acinetobacter baumannii

- MIC (Streptococcus mutans): 6.76 µM (≈ 16 µg/mL)
Compound: NC(=O)[C@H](Cc1ccccc1)NC(=O)[C@H](Cc1c[nH]c2ccccc12)NC(=O)[C@H](CCCN=C(N)N)NC(=O)[C@H](Cc1c[nH]c2ccccc12)NC(=O)[C@H](CCCN=C(N)N)NC(=O)[C@H](Cc1c[nH]c2ccccc12)NC(=O)[C@H](CCCN=C(N)N)NC(=O)[C@H](Cc1ccccc1)NC(=O)[C@H](Cc1c[nH]c2ccccc12)NC(=O)[C@H](CCCN=C(N)N)NC(=O)[C@H](Cc1c[nH]c2ccccc12)NC(=O)[C@H](CCCN=C(N)N)NC(=O)[C@H](Cc1c[nH]c2ccccc12)NC(=O)[C@@H](N)CCCN=C(N)N [RWRWRWFRWRWRWF]

- MIC [1]: 143 µM (≈ 201 µg/mL)
- MIC [2]: 143 µM (≈ 201 µg/mL)
- MIC [3]: 36 µM (≈ 50.5 µg/mL)
- MIC [4]: ≥ 36 µM
Compound: NCCCC[C@H](NC(=O)[C@H](Cc1c[nH]c2ccccc12)NC(=O)[C@H](CCC(N)=O)NC(=O)[C@H](Cc1c[nH]c2ccccc12)NC(=O)[C@H](CCCCN)NC(=O)[C@H](Cc1c[nH]c2ccccc12)NC(=O)[C@H](CCC(N)=O)NC(=O)[C@H](Cc1c[nH]c2ccccc12)NC(=O)[C@@H](N)CCCCN)C(=O)O [KWQWKWQWK]

- MIC (Micrococcus luteus): ≥ 35.1 µM
Compound: CC(C)C[C@H](NC(=O)CNC(=O)[C@H](CC(C)C)NC(=O)CNC(=O)[C@H](CC(N)=O)NC(=O)[C@H](CC(C)C)NC(=O)[C@H](CC(C)C)NC(=O)[C@H](CC(N)=O)NC(=O)CNC(=O)[C@H](CC(C)C)NC(=O)[C@@H](NC(=O)CNC(=O)[C@H](CC(C)C)NC(=O)[C@H](CC(C)C)NC(=O)CN)[C@@H](C)O)C(N)=O [GLLGTLGNLLNGLGL]

- MIC [3]: 6.25 µM (≈ 14.6 µg/mL)
- MIC [5]: 3.13 µM (≈ 7.31 µg/mL)
- MIC [6]: 25 µM (≈ 58.4 µg/mL)
Compound: CC[C@H](C)[C@H](NC(=O)[C@H](CC(C)C)NC(=O)[C@H](CCCCN)NC(=O)[C@H](CCCCN)NC(=O)[C@@H](NC(=O)[C@H](C)NC(=O)[C@H](CCCCN)NC(=O)[C@@H](NC(=O)[C@H](C)NC(=O)[C@H](Cc1cnc[nH]1)NC(=O)[C@@H]1CCCN1C(=O)[C@@H](NC(=O)[C@H](CC(C)C)NC(=O)[C@@H]1CCCN1C(=O)CNC(=O)[C@@H](NC(=O)[C@H](Cc1ccc(O)cc1)NC(=O)[C@H](CCCCN)NC(=O)[C@H](CCSC)NC(=O)[C@H](Cc1ccccc1)NC(=O)CN)[C@@H](C)CC)[C@@H](C)CC)C(C)C)[C@@H](C)CC)C(N)=O [GFMKYIGPLIPHAVKAIKKLI]

- MIC [7]: ≥ 142 µM
Compound: C[C@H](NC(=O)[C@H](C)NC(=O)[C@H](CCCCN)NC(=O)[C@H](CCCCN)NC(=O)[C@H](C)NC(=O)[C@H](C)NC(=O)[C@H](CCCCN)NC(=O)[C@H](CCCCN)NC(=O)[C@H](C)NC(=O)[C@H](Cc1ccccc1)NC(=O)[C@H](CCCCN)NC(=O)[C@H](CCCCN)NC(=O)[C@H](C)NC(=O)[C@H](Cc1ccccc1)NC(=O)[C@@H](N)CCCCN)C(=O)N[C@@H](CCCCN)C(=O)O [KFAKKFAKKAAKKAAK]

- MIC [5]: ≥ 70 µM
Compound: CC[C@H](C)[C@H](NC(=O)[C@H](CC(C)C)NC(=O)CNC(=O)[C@H](CO)NC(=O)[C@H](CC(C)C)NC(=O)[C@@H](NC(=O)[C@H](CCCCN)NC(=O)CNC(=O)[C@@H](NC(=O)[C@H](CC(C)C)NC(=O)[C@@H]1CCCN1C(=O)[C@H](CC(C)C)NC(=O)[C@@H](N)Cc1ccccc1)C(C)C)[C@@H](C)CC)C(N)=O [FLPLVGKILSGLI]

- MIC [2]: 15 µM (≈ 33.9 µg/mL)
- MIC [8]: 15 µM (≈ 33.9 µg/mL)
- MIC [9]: 17 µM and 12 µM
- MIC [10]: 12 µM and 10 µM
Compound: CC[C@H](C)[C@H](NC(=O)[C@H](Cc1cnc[nH]1)NC(=O)[C@H](C)NC(=O)[C@H](CCSC)NC(=O)[C@H](CC(N)=O)NC(=O)[C@H](CCCCN)NC(=O)[C@H](CCCCN)NC(=O)[C@@H](NC(=O)[C@@H](NC(=O)[C@H](CCCCN)NC(=O)[C@H](C)NC(=O)[C@H](Cc1ccccc1)NC(=O)[C@H](CC(C)C)NC(=O)[C@H](CCCCN)NC(=O)[C@@H]1CCCN1C(=O)[C@H](CC(C)C)NC(=O)[C@@H](N)Cc1ccccc1)[C@@H](C)CC)[C@@H](C)O)C(=O)N[C@@H](CCCN=C(N)N)C(=O)N[C@@H](CS)C(=O)O [FLPKLFAKITKKNMAHIRC]

- MIC (Bacillus subtilis 168): 1.4 µM (≈ 2.14 µg/mL)
- MIC (Staphylococcus aureus): 27 µM (≈ 41.2 µg/mL)
- MIC (Pseudomonas aeruginosa): 32.5 µM (≈ 49.6 µg/mL)
- MIC (Escherichia coli B): 8 µM (≈ 12.2 µg/mL)
Compound: CC[C@H](C)[C@H](NC(=O)[C@H](Cc1cnc[nH]1)NC(=O)[C@H](CCCCN)NC(=O)[C@H](Cc1c[nH]c2ccccc12)NC(=O)[C@H](CC(C)C)NC(=O)[C@H](CO)NC(=O)[C@H](CCSC)NC(=O)[C@H](Cc1c[nH]c2ccccc12)NC(=O)[C@H](CCCCN)NC(=O)CN)C(=O)N[C@@H](CC(C)C)C(=O)N[C@@H](CCCCN)C(N)=O [GKWMSLWKHILK]

- MIC [3]: 6 µM (≈ 29.2 µg/mL)
- MIC [5]: 12.5 µM (≈ 60.8 µg/mL)
- MIC [6]: ≥ 50 µM
Compound: CC[C@H](C)[C@H](NC(=O)CNC(=O)[C@H](CCCCN)NC(=O)CNC(=O)[C@H](C)NC(=O)[C@H](Cc1ccccc1)NC(=O)[C@H](CCCCN)NC(=O)[C@H](CO)NC(=O)[C@H](Cc1ccccc1)NC(=O)[C@H](CC(C)C)NC(=O)CN)C(=O)N[C@@H](CCCCN)C(=O)N[C@@H](CC(N)=O)C(=O)N[C@@H](CC(C)C)C(=O)N[C@H](C(=O)N[C@@H](Cc1ccccc1)C(=O)N[C@@H](CCCCN)C(=O)NCC(=O)N[C@H](C(=O)N[C@@H](CCCCN)C(=O)N[C@@H](Cc1cnc[nH]1)C(=O)N[C@H](C(=O)NCC(=O)N[C@@H](CCCCN)C(=O)N[C@@H](CCC(=O)O)C(=O)N[C@H](C(=O)NCC(=O)N[C@@H](CCSC)C(=O)N[C@@H](CC(=O)O)C(=O)N[C@H](C(=O)N[C@H](C(=O)N[C@@H](CCCN=C(N)N)C(=O)N[C@H](C(=O)NCC(=O)N[C@H](C(=O)N[C@@H](CC(=O)O)C(=O)N[C@H](C(=O)N[C@@H](C)C(=O)NCC(=O)N[C@H]1CSSC[C@@H](C(=O)O)NC(=O)[C@H](CCC(=O)O)NC(=O)CNC(=O)[C@H](CCCCN)NC(=O)[C@H]([C@@H](C)CC)NC(=O)[C@H](CCCCN)NC1=O)C(C)C)[C@@H](C)CC)[C@@H](C)O)[C@@H](C)CC)C(C)C)C(C)C)[C@@H](C)CC)C(C)C)[C@@H](C)CC [GLFSKFAGKGIKNLIFKGVKHIGKEVGMDVIRTGIDVAGCKIKGEC]

- MIC (Bacillus subtilis 168): 1.3 µM (≈ 1.8 µg/mL)
- MIC (Staphylococcus aureus): 15.8 µM (≈ 21.8 µg/mL)
- MIC (Pseudomonas aeruginosa): 65 µM (≈ 89.8 µg/mL)
- MIC (Escherichia coli B): 7.2 µM (≈ 9.95 µg/mL)
Compound: CC[C@H](C)[C@H](NC(=O)[C@H](CC(C)C)NC(=O)[C@H](Cc1cnc[nH]1)NC(=O)CNC(=O)[C@H](CC(C)C)NC(=O)[C@@H](NC(=O)[C@H](CCCCN)NC(=O)[C@H](CO)NC(=O)[C@H](Cc1c[nH]c2ccccc12)NC(=O)[C@H](CCSC)NC(=O)CN)[C@@H](C)CC)C(=O)N[C@@H](CCCCN)C(N)=O [GMWSKILGHLIK]

- MIC (Bacillus subtilis 168): 1.3 µM (≈ 2.24 µg/mL)
- MIC (Staphylococcus aureus): 71.6 µM (≈ 123 µg/mL)
- MIC (Pseudomonas aeruginosa): 22.7 µM (≈ 39.1 µg/mL)
- MIC (Escherichia coli B): 2.5 µM (≈ 4.31 µg/mL)
Compound: CC[C@H](C)[C@H](NC(=O)[C@H](CCCCN)NC(=O)CNC(=O)[C@H](CC(C)C)NC(=O)[C@@H](NC(=O)[C@H](CCCCN)NC(=O)[C@H](CCCCN)NC(=O)[C@H](Cc1c[nH]c2ccccc12)NC(=O)[C@@H](NC(=O)[C@@H](N)CC(N)=O)C(C)C)C(C)C)C(=O)N[C@H](C(=O)N[C@@H](CCCCN)C(=O)N[C@H](C(=O)N[C@@H](C)C(=O)N[C@@H](CCCCN)C(N)=O)C(C)C)[C@@H](C)CC [NVWKKVLGKIIKVAK]

- MIC [1]: 16 µM and 22.6 µM
- MIC [11]: 2 µM (≈ 3.87 µg/mL)
- MIC (Escherichia coli): 45.3 µM (≈ 87.6 µg/mL)
- MIC [2]: 8 µM (≈ 15.5 µg/mL)
- MIC [3]: 8 µM (≈ 15.5 µg/mL)
- MIC (Klebsiella pneumoniae): 16 µM (≈ 31 µg/mL)
- MIC (Acinetobacter baumannii): ≥ 45.3 µM
- MIC (Staphylococcus aureus): 16 µM (≈ 31 µg/mL)
- MIC (Pseudomonas aeruginosa): 22.6 µM (≈ 43.8 µg/mL)
- MIC [10]: 16 µM (≈ 31 µg/mL)
Compound: CC[C@H](C)[C@H](NC(=O)[C@@H](N)CCCCN)C(=O)NCC(=O)N[C@@H](CCCCN)C(=O)N[C@@H](C)C(=O)N[C@@H](CC(C)C)C(=O)NCC(=O)N[C@@H](CCCCN)C(=O)N[C@@H](C)C(=O)N[C@@H](CC(C)C)C(=O)N[C@@H](CCCCN)C(=O)N[C@@H](C)C(=O)N[C@@H](CC(C)C)C(=O)NCC(=O)N[C@@H](CCCCN)C(=O)N[C@@H](C)C(=O)N[C@@H](CC(C)C)C(=O)NCC(=O)N[C@@H](CCCCN)C(=O)N[C@@H](C)C(N)=O [KIGKALGKALKALGKALGKA]
